Data reported in patent US9850225B2, “Compounds useful as immunomodulators” (BRISTOL-MYERS SQUIBB COMPANY, priority 2014, dated 2017).

Molecular target: PD-1/PD-L1 interaction (PD-1-Ig / PD-L1-His) (Homo sapiens (Human), UniProt Q9NZQ7)
Assay: PD-1/PD-L1 Homogenous Time-Resolved Fluorescence (HTRF) binding assay
Settings: PD-1/PD-L1 HTRF binding assay; value given as range class; read-out: Range or IC50
Procedure, shortened: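 HTRF detection used 1 nM europium-cryptate anti-Ig and 20 nM APC anti-His. Compounds first saw 10 nM PD-L1-His for 15 min, and 20 nM PD-1-Ig was then added for another 15 min. Buffer was dPBS plus 0.1% BSA and 0.05% Tween-20. All concentrations are final.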

PD-1/PD-L1 interaction (PD-1-Ig / PD-L1-His), sequence (Q9NZQ7 other isoform, or with tags, fused parts or gaps): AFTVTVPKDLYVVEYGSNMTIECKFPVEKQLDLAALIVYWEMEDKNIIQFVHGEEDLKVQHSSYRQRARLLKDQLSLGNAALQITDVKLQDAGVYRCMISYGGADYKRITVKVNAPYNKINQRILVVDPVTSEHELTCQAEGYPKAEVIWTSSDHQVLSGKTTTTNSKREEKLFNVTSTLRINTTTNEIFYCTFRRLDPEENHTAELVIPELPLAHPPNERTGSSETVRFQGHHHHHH

Row | SMILES | IC50
1 | CC(=O)NCCNCc1ccc(OCc2cccc(-c3ccccc3)c2C)cc1OCc1cccc(C)c1 [Example 1025, N-(2-((4-((2-methyl-[1,1′-biphenyl]-3-yl)methoxy)-2-((3-methylbenzyl)oxy)benzyl)amino)ethyl)acetamide] | 0.1 to 20 µM
2 | Cc1c(COc2ccc(CN3CCCC[C@H]3C(=O)O)c(OCc3ccc(F)c(C#N)c3)c2)cccc1-c1ccccc1 [Example 1334, (S)-1-(2-((3-cyano-4-fluorobenzyl)oxy)-4-((2-methyl-[1,1′-biphenyl]-3-yl)methoxy)benzyl)piperidine-2-carboxylic acid] | 0.0006 to 0.01 µM
3 | CC(=O)NCCNCc1cc(C)c(OCc2cccc(-c3ccc4c(c3)OCCO4)c2C)cc1OCCCCC#N [Example 1294, N-(2-(2-(4-cyanobutoxy)-4-(3-(2,3-dihydrobenzo[b][1,4]dioxin-6-yl)-2-methylbenzyloxy)-5-methylbenzylamino)ethyl)acetamide] | 0.01 to 0.1 µM
4 | C=Cc1cc(CNCCNC(C)=O)c(OCc2cccc(C#N)c2)cc1OCc1cccc(-c2ccc3c(c2)OCCO3)c1C [Example 1292, N-(2-(2-(3-cyanobenzyloxy)-4-(3-(2,3-dihydrobenzo[b][1,4]dioxin-6-yl)-2-methylbenzyloxy)-5-vinylbenzylamino)ethyl)acetamide] | 0.0006 to 0.01 µM
5 | Cc1c(COc2cc(OCc3cncc(C(=O)O)c3)c(CN[C@@](C)(CO)C(=O)O)cc2Cl)cccc1-c1ccc2c(c1)OCCO2 [Example 2001, (S)-5-((2-(((2-carboxy-1-hydroxypropan-2-yl)amino)methyl)-4-chloro-5-((3-(2,3-dihydrobenzo[b][1,4]dioxin-6-yl)-2-methylbenzyl)oxy)phenoxy)methyl)nicotinic acid] | 0.0006 to 0.01 µM
6 | COc1cc(COc2cc(OCc3cccc(-c4ccccc4)c3C)ccc2CNCCNC(C)=O)ccc1F [Example 1093, N-(2-((2-((4-fluoro-3-methoxybenzyl)oxy)-4-((2-methyl-[1,1′-biphenyl]-3-yl)methoxy)benzyl)amino)ethyl)acetamide] | 0.1 to 20 µM
7 | COc1cc(COc2cc(OCc3cccc(-c4ccc5c(c4)OCCO5)c3C)c(Cl)cc2CN[C@@](C)(CO)C(=O)O)ccn1 [Example 3015, (2S)-2-{[(5-chloro-4-{[3-(2,3-dihydro-1,4-benzodioxin-6-yl)-2-methylphenyl]methoxy}-2-[(2-methoxypyridin-4-yl)methoxy]phenyl)methyl]amino}-3-hydroxy-2-methylpropanoic acid] | 0.0006 to 0.01 µM
8 | Cc1c(COc2cc(OCc3cccc(C#N)c3)c(CN[C@H](COCc3ccccc3)C(=O)O)cc2Cl)cccc1-c1ccc2c(c1)OCCO2 [Example 1194, (R)-3-(benzyloxy)-2-((5-chloro-2-((3-cyanobenzyl)oxy)-4-((3-(2,3-dihydrobenzo[b][1,4]dioxin-6-yl)-2-methylbenzyl)oxy)benzyl)amino)propanoic acid] | 0.01 to 0.1 µM
9 | Cc1c(COc2cc(OCc3cccc(C#N)c3)c(CN[C@@H](C(=O)O)[C@H](C)O)cc2Cl)cccc1-c1ccc2c(c1)OCCO2 [Example 1195, (2R,3S)-2-((5-chloro-2-((3-cyanobenzyl)oxy)-4-((3-(2,3-dihydrobenzo[b][1,4]dioxin-6-yl)-2-methylbenzyl)oxy)benzyl)amino)-3-hydroxybutanoic acid] | 0.0006 to 0.01 µM
10 | Cc1cc(CN2CCCC[C@@H]2C(=O)O)c(OCc2cncc(C#N)c2)cc1OCc1cccc(-c2ccc3c(c2)OCCO3)c1Cl [Example 1155, (R)-1-(4-(2-chloro-3-(2,3-dihydrobenzo[b][1,4]dioxin-6-yl)benzyloxy)-2-((5-cyanopyridin-3-yl)methoxy)-5-methylbenzyl)piperidine-2-carboxylic acid] | 0.0006 to 0.01 µM
11 | Cc1c(COc2ccc(CN[C@](C)(CO)C(=O)O)c(OCc3ccc(F)c(C#N)c3)c2)cccc1-c1ccccc1 [Example 1333, (R)-2-((2-((3-cyano-4-fluorobenzyl)oxy)-4-((2-methyl-[1,1′-biphenyl]-3-yl)methoxy)benzyl)amino)-3-hydroxy-2-methylpropanoic acid] | 0.0006 to 0.01 µM
12 | Cc1c(COc2ccc(CN3CCCC[C@H]3C(=O)O)c(OCc3cc(C#N)ccn3)c2)cccc1-c1ccc2c(c1)OCCO2 [Example 1132, (S)-1-(2-((4-cyanopyridin-2-yl)methoxy)-4-(3-(2,3-dihydrobenzo[b][1,4]dioxin-6-yl)-2-methylbenzyloxy)benzyl)piperidine-2-carboxylic acid] | 0.01 to 0.1 µM
13 | Cc1c(COc2ccc(CN[C@@H](C(=O)O)[C@H](C)O)c(OCc3cccc(C#N)c3)c2)cccc1-c1ccc2c(c1)OCCO2 [Example 1123, (2R,3S)-2-((2-((3-cyanobenzyl)oxy)-4-((3-(2,3-dihydrobenzo[b][1,4]dioxin-6-yl)-2-methylbenzyl)oxy)benzyl)amino)-3-hydroxybutanoic acid] | 0.0006 to 0.01 µM
14 | CC(=O)NCCNCc1ccc(OCc2cccc(-c3ccccc3)c2C)cc1OCc1cccc(C(F)(F)F)c1 [Example 1051, N-(2-((4-((2-methyl-[1,1′-biphenyl]-3-yl)methoxy)-2-((3-(trifluoromethyl)benzyl)oxy)benzyl)amino)ethyl)acetamide] | 0.1 to 20 µM
15 | CC(=O)NCCNCc1cc(Cl)c(OCc2cccc(-c3ccc4c(c3)OCCO4)c2C)cc1OCc1cccc(C#N)c1 [Example 1247, N-(2-((5-chloro-2-((3-cyanobenzyl)oxy)-4-((3-(2,3-dihydrobenzo[b][1,4]dioxin-6-yl)-2-methylbenzyl)oxy)benzyl)amino)ethyl)acetamide] | 0.0006 to 0.01 µM
16 | Cc1cc(CNC[C@@H](O)CC(=O)O)c(OCc2cncc(C#N)c2)cc1OCc1cccc(-c2ccc3c(c2)OCCO3)c1C [Example 1283, (S)-4-(2-((5-cyanopyridin-3-yl)methoxy)-4-(3-(2,3-dihydrobenzo[b][1,4]dioxin-6-yl)-2-methylbenzyloxy)-5-methylbenzylamino)-3-hydroxybutanoic acid] | 0.0006 to 0.01 µM
17 | Cc1c(COc2cc(OCc3cccc(C#N)c3)c(CN[C@@](C)(CO)C(=O)O)cc2Br)cccc1-c1ccc2c(c1)OCCO2 [Example 1304, (S)-2-((5-bromo-2-((3-cyanobenzyl)oxy)-4-((3-(2,3-dihydrobenzo[b][1,4]dioxin-6-yl)-2-methylbenzyl)oxy)benzyl)amino)-3-hydroxy-2-methylpropanoic acid] | 0.0006 to 0.01 µM
18 | Cc1c(COc2cc(OCc3cccc(C#N)c3)c(CN[C@@H](CO)C(=O)O)cc2Br)cccc1-c1ccc2c(c1)OCCO2 [Example 1301, (S)-2-((5-bromo-2-((3-cyanobenzyl)oxy)-4-((3-(2,3-dihydrobenzo[b][1,4]dioxin-6-yl)-2-methylbenzyl)oxy)benzyl)amino)-3-hydroxypropanoic acid] | 0.0006 to 0.01 µM
19 | COC(=O)c1ccc(F)c(COc2cc(OCc3cccc(-c4ccccc4)c3C)ccc2CNCCNC(C)=O)c1 [Example 1103, methyl 3-((2-(((2-acetamidoethyl)amino)methyl)-5-((2-methyl-[1,1′-biphenyl]-3-yl)methoxy)phenoxy)methyl)-4-fluorobenzoate] | 0.1 to 20 µM
20 | CC(=O)NCCNCc1ccc(OCc2cccc(-c3ccccc3)c2C)cc1OCc1ccc2ccccc2c1 [Example 1056, N-(2-((4-((2-methyl-[1,1′-biphenyl]-3-yl)methoxy)-2-(naphthalen-2-ylmethoxy)benzyl)amino)ethyl)acetamide] | 0.1 to 20 µM
21 | Cc1cc(CNC[C@@H](O)CC(=O)O)c(OCc2ccc(F)c(C#N)c2)cc1OCc1cccc(-c2ccc3c(c2)OCCO3)c1C [Example 1270, (S)-4-((2-((3-cyano-4-fluorobenzyl)oxy)-4-((3-(2,3-dihydrobenzo[b][1,4]dioxin-6-yl)-2-methylbenzyl)oxy)-5-methylbenzyl)amino)-3-hydroxybutanoic acid] | 0.0006 to 0.01 µM
22 | CC(=O)NCCNCc1ccc(OCc2cccc(-c3ccccc3)c2C)cc1OCc1ccc(F)cc1 [Example 1075, N-(2-((2-((4-fluorobenzyl)oxy)-4-((2-methyl-[1,1′-biphenyl]-3-yl)methoxy)benzyl)amino)ethyl)acetamide] | 0.1 to 20 µM
23 | Cc1c(COc2cc(OCc3cncc(C#N)c3)c(CN[C@@H](Cc3ccncc3)C(=O)O)cc2Cl)cccc1-c1ccc2c(c1)OCCO2 [Example 2011, (S)-2-((5-chloro-2-((5-cyanopyridin-3-yl)methoxy)-4-((3-(2,3-dihydrobenzo[b][1,4]dioxin-6-yl)-2-methylbenzyl)oxy)benzyl)amino)-3-(pyridin-4-yl)propanoic acid] | 0.01 to 0.1 µM
24 | Cc1c(COc2cc(OCc3cccc(C#N)c3)c(CN3CCCC[C@@H]3C(=O)O)cc2Cl)cccc1-c1ccc2c(c1)OCCO2 [Example 1198, (R)-1-(5-chloro-2-((3-cyanobenzyl)oxy)-4-((3-(2,3-dihydrobenzo[b][1,4]dioxin-6-yl)-2-methylbenzyl)oxy)benzyl)piperidine-2-carboxylic acid] | 0.0006 to 0.01 µM
25 | Cc1c(COc2ccc(CNC[C@@H](O)CC(=O)O)c(OCCCCC#N)c2)cccc1-c1ccccc1 [Example 1144, (S)-4-((2-(4-cyanobutoxy)-4-((2-methyl-[1,1′-biphenyl]-3-yl)methoxy)benzyl)amino)-3-hydroxybutanoic acid] | 0.0006 to 0.01 µM
26 | Cc1c(COc2cc(OCc3cncc(C#N)c3)c(CN[C@H](CC(=O)O)C(=O)O)cc2Cl)cccc1-c1ccc2c(c1)OCCO2 [Example 3025, (R)-2-((5-chloro-2-((5-cyanopyridin-3-yl)methoxy)-4-((3-(2,3-dihydrobenzo[b][1,4]dioxin-6-yl)-2-methylbenzyl)oxy)benzyl)amino)succinic acid] | 0.0006 to 0.01 µM

Same assay, conditions: PD-1/PD-L1 HTRF binding assay; μM; read-out: Range or IC50

Row | SMILES | IC50
27 | COc1ccccc1COc1cc(OCc2cccc(-c3ccc4c(c3)OCCO4)c2C)c(Cl)cc1CN1CCCC[C@H]1C(=O)O [Example 3029, (S)-1-(5-chloro-4-((3-(2,3-dihydrobenzo[b][1,4]dioxin-6-yl)-2-methylbenzyl)oxy)-2-((2-methoxybenzyl)oxy)benzyl)piperidine-2-carboxylic acid] | 2.35 µM
